According to ChEMBL document CHEMBL1201862, “PubChem BioAssay data set” (2004):
Calls of active or inactive are those of the source.

Experiments:
Protein skinhead-1 = biological target: T1, Protein skinhead-1 (Caenorhabditis elegans, UniProt P34707); assay type: functional
T1 sequence (P34707 whole entry): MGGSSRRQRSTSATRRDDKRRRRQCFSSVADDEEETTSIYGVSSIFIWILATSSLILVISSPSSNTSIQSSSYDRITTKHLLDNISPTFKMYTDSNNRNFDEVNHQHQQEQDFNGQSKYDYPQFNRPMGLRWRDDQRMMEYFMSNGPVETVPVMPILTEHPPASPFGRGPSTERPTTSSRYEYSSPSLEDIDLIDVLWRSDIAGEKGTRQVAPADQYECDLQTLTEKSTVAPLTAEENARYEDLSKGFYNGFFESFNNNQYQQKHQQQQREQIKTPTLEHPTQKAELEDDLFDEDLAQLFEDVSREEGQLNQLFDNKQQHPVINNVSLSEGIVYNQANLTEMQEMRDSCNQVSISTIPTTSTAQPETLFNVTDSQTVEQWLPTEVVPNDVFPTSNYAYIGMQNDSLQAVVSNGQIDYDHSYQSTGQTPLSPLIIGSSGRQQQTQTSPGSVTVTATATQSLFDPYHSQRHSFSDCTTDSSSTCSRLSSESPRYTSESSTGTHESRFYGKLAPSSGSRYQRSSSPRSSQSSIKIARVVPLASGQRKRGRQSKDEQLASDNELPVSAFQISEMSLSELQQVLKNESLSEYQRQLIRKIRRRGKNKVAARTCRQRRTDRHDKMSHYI

[1] = biological target: Peroxisome proliferator-activated receptor gamma/Nuclear receptor coactivator 3 (Homo sapiens, UniProt P37231); experiment: TR-FRET dose response biochemical High Throughput Screening assay for agonists of the steroid receptor coactivator 3 (SRC-3) recruitment by the peroxisome proliferator-activated receptor gamma (PPAR gamma): non-selective agonists. [Related pubchem assays: 1301 (Confirmation screen.), 1048 (Primary screen.)]; assay type: functional
[2] = biological target: Peroxisome proliferator-activated receptor gamma/Nuclear receptor coactivator 2 (Homo sapiens, UniProt P37231); experiment: (§1) TR-FRET dose response biochemical High Throughput Screening assay for agonists of the steroid receptor coactivator 2 (SRC-2) recruitment by the peroxisome proliferator-activated receptor gamma (PPAR gamma): non-selective agonists. [Related pubchem assays: 1297, 1032 ]; assay type: functional
Sequence of Peroxisome proliferator-activated receptor gamma/Nuclear receptor coactivator 2 (P37231 whole entry): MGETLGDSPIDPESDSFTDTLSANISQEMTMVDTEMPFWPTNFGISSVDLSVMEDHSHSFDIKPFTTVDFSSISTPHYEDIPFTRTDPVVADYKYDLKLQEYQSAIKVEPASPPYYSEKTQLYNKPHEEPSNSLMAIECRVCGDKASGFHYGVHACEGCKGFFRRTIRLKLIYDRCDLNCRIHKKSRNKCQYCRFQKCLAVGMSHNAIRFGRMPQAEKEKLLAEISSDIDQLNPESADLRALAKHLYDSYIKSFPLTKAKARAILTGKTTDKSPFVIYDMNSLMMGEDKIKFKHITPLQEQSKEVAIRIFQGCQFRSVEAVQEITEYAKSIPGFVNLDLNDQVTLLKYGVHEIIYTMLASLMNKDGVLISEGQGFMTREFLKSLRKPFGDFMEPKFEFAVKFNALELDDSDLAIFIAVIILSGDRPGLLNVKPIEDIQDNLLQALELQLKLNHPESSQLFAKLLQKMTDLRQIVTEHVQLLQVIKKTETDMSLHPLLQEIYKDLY
Sequence of Peroxisome proliferator-activated receptor gamma/Nuclear receptor coactivator 2 (Q15596 whole entry, further chain): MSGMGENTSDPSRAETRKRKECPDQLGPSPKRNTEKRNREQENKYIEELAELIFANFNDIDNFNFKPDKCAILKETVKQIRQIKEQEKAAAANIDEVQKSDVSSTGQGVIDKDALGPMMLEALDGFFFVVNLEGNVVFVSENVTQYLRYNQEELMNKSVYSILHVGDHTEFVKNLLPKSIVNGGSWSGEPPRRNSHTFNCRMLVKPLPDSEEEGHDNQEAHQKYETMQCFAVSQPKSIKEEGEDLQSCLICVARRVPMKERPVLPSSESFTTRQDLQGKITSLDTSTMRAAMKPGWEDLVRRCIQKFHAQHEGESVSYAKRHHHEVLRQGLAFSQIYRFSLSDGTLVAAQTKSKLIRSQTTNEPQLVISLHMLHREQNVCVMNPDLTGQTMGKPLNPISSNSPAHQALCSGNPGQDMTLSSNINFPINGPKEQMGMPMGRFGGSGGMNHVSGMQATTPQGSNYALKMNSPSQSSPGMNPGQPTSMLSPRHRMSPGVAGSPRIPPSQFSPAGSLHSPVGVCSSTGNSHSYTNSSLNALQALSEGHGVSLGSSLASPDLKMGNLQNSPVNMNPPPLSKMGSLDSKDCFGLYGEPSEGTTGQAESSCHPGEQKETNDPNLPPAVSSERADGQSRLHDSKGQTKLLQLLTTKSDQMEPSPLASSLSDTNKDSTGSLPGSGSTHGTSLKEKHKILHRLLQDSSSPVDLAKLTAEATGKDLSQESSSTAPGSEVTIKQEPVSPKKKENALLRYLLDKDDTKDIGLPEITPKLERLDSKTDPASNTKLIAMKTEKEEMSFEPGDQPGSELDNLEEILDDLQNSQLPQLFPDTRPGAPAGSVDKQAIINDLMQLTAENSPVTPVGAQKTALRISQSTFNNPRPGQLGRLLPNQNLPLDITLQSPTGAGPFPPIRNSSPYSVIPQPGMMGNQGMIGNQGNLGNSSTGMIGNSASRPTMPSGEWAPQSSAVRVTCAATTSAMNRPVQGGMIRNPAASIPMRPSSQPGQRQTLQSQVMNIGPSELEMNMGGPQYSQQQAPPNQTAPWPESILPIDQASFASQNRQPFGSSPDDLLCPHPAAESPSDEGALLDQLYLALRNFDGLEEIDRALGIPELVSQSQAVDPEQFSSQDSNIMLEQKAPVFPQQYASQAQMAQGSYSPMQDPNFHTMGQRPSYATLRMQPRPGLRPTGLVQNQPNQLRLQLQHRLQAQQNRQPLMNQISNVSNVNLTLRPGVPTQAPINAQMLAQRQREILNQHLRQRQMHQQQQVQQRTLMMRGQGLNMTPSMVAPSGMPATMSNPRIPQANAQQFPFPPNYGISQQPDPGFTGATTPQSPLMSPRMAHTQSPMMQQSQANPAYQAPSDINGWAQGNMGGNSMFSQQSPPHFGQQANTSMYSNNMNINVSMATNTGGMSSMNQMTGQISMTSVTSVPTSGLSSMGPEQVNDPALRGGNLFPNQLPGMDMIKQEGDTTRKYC

[3] = biological target: Peroxisome proliferator-activated receptor gamma/Nuclear receptor coactivator 1 (Homo sapiens, UniProt P37231); experiment: as §1, with “1 (SRC-1)” for “2 (SRC-2)”, “assays (depositor defined):AID1300, AID1808, AID504735, AID631]” for “assays: 1297, 1032 ]”; assay type: protein assay
[4] = biological target: Voltage-dependent T-type calcium channel subunit alpha-1H (Homo sapiens, UniProt O95180); assay type: functional;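 note: channel activity triggered by adding a high calcium stimulation buffer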
CAAX prenyl protease 2 [5] = biological target: T2, CAAX prenyl protease 2 (Saccharomyces cerevisiae S288c, UniProt Q03530); assay type: biochemical
T2 sequence (Q03530 whole entry): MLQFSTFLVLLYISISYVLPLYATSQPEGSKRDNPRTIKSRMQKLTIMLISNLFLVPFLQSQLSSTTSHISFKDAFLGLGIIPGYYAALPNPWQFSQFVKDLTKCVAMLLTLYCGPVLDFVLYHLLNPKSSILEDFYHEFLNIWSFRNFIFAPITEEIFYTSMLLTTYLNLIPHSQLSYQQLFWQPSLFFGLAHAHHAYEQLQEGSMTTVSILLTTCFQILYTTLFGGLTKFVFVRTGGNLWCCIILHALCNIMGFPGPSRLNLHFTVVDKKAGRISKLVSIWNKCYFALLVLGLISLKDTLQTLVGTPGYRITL

CAAX prenyl protease 2 [6] = biological target: T3, CAAX prenyl protease 2 (Homo sapiens, UniProt Q9Y256); experiment: inhibition of Ras-converting CAAX protease Rce1 – biochemical, yeast membranes, quenched-peptide fluorescence, cherry-pick, dose response (AID 588849)
T3 sequence (Q9Y256 whole entry): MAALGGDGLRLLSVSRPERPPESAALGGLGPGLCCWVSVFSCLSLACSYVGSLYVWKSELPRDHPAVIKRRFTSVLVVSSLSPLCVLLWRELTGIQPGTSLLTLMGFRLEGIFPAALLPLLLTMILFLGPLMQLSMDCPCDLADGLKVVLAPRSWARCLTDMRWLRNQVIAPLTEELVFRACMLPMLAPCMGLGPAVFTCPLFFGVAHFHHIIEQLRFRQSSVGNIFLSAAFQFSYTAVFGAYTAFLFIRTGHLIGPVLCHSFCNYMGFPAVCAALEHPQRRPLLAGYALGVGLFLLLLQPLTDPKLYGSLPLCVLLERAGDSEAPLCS

[7] = toxicity toward cultured mammalian cells – cell-based, plate reader, cherry-pick samples, cytotoxicity control, dose response (AID 504397); assay type: functional
Albumin = Albumin (Bos taurus, UniProt P02769); experiment: Counterscreen for inhibitors of T-cell receptor (TCR)-CD3 interaction: Fluorescence-based biochemical high throughput dose response assay to identify inhibitors of T-cell receptor (TCR)-CD3 interaction using a TAMRA-labeled BSA probe.; assay type: functional
Sequence of Albumin (P02769 whole entry): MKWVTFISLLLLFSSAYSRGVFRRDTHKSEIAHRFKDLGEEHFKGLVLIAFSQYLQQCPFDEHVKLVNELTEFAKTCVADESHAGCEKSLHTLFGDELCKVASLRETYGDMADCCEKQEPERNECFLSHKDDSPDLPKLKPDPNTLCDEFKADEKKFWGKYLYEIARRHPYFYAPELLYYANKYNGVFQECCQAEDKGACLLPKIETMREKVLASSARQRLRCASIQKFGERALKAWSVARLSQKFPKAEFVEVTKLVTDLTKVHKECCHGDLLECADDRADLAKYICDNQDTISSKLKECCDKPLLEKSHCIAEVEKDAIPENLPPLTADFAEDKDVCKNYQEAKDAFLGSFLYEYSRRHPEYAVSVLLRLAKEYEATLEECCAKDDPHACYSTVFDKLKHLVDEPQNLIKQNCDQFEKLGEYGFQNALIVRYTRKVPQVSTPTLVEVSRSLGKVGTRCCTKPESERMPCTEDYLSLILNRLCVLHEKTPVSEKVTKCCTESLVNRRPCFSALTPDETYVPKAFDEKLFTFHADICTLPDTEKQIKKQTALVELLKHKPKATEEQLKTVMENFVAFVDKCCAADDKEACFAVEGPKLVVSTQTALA

[8] = biological target: Lysine-specific demethylase 4C (Homo sapiens, UniProt Q9H3R0); experiment: inhibition of JMJD2C H3K9me3 demethylation – biochemical, DELFIA europium, cherry-picked samples, dose response (AID 488835); assay type: functional
Sequence of Lysine-specific demethylase 4C (Q9H3R0 whole entry): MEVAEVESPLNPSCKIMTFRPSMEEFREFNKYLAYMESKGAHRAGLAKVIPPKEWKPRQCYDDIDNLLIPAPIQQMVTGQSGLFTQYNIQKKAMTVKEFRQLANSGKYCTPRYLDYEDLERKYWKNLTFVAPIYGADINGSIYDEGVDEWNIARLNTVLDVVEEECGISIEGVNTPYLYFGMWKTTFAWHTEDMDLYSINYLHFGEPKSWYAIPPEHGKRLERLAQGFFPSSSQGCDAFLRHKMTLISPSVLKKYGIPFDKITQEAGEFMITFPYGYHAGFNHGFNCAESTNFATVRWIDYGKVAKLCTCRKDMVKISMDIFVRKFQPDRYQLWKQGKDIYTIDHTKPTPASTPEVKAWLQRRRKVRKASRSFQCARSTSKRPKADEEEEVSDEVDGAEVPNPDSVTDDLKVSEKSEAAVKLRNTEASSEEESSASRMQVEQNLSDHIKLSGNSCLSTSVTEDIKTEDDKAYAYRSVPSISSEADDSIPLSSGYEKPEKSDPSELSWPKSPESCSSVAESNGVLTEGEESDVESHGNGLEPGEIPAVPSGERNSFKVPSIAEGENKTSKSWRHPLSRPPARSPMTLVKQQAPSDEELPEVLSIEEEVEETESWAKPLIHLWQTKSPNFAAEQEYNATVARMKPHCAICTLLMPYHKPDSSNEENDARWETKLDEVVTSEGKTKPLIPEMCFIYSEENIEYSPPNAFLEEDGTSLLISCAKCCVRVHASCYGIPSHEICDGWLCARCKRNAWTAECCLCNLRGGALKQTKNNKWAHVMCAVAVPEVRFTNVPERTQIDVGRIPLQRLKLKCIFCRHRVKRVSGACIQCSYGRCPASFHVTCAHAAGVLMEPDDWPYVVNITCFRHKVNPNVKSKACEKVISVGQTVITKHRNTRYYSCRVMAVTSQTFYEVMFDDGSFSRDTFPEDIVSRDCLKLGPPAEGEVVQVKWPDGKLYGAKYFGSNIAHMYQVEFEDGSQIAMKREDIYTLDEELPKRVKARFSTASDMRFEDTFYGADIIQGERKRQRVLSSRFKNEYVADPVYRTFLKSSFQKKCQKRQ

[9] = biological target: T4, Mannose-6-phosphate isomerase (Homo sapiens, UniProt P34949); experiment: MPI enzyme activity inhibition – biochemical, fluorescence intensity, coupled assay, primary screen (AID 1209)
T4 sequence (P34949 whole entry): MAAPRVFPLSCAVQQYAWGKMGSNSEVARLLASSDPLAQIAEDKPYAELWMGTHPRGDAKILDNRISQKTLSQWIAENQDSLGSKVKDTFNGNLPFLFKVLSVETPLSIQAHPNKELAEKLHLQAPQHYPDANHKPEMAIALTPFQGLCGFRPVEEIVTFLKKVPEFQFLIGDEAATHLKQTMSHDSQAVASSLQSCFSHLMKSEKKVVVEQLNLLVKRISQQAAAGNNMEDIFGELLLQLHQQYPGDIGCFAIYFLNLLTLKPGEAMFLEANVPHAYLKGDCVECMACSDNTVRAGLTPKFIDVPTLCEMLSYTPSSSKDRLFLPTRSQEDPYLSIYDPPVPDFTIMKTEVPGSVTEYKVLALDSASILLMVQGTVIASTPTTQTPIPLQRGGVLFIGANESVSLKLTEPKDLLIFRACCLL

[10] = biological target: T4, Mannose-6-phosphate isomerase; experiment: phosphomannose isomerase inhibition – biochemical, fluorescence intensity, confirmation (AID 1535)
Phosphomannomutase 2 = Phosphomannomutase 2 (Homo sapiens, UniProt O15305); experiment: Counter screen SAR assay for PMM2 inhibitors via a fluorescence intensity assay. [Related pubchem assays (depositor defined):AID1545, AID1574]
Sequence of Phosphomannomutase 2 (O15305 whole entry): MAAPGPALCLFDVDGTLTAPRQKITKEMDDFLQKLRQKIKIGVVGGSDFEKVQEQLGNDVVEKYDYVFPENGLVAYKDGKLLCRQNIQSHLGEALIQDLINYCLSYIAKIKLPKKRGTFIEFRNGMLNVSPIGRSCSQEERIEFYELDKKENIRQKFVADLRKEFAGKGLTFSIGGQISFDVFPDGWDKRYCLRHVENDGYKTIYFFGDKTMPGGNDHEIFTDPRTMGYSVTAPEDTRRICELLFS

[11] = biological target: DNA dC->dU-editing enzyme APOBEC-3A (Homo sapiens, UniProt P31941); experiment: Dose Response confirmation of small molecule APOBEC3A DNA Deaminase Inhibitors via a fluorescence-based single-stranded DNA deaminase assay. [Related pubchem assays (depositor defined):AID493011, AID493024]; assay type: functional
Sequence of DNA dC->dU-editing enzyme APOBEC-3A (P31941 whole entry): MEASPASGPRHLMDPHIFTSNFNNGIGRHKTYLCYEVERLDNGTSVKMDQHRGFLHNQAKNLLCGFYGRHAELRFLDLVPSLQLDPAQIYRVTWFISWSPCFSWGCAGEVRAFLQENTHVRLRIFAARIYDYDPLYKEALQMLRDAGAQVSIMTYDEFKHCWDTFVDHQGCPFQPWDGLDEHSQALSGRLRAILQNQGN

[12] = biological target: DNA dC->dU-editing enzyme APOBEC-3G (Homo sapiens, UniProt Q9HC16); assay type: functional;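 note: Dose-response counterscreen measuring inhibition of APOBEC3G DNA deaminase activity, run while confirming APOBEC3A inhibitors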
Sequence of DNA dC->dU-editing enzyme APOBEC-3G (Q9HC16 whole entry): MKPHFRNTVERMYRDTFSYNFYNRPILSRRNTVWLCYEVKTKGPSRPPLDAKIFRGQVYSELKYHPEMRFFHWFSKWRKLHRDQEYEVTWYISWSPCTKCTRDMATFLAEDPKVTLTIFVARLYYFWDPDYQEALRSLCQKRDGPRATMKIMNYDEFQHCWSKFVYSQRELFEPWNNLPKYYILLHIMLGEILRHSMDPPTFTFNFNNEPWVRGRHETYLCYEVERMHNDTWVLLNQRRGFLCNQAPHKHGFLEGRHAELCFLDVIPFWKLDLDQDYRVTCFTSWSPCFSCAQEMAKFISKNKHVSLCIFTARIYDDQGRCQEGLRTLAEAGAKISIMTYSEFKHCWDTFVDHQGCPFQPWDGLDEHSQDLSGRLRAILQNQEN

[13] = biological target: G-protein coupled receptor 55 (Homo sapiens, UniProt Q9Y2T6); experiment: inhibition of LPI-stimulated GPR55 beta-arrestin translocation – imaging, U2OS, beta-arrestin-GFP, LPI agonist, primary screen (AID 2013); assay type: functional;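 note: antagonist potency measured as reduced agonist-driven arrestin aggregation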
Sequence of G-protein coupled receptor 55 (Q9Y2T6 whole entry): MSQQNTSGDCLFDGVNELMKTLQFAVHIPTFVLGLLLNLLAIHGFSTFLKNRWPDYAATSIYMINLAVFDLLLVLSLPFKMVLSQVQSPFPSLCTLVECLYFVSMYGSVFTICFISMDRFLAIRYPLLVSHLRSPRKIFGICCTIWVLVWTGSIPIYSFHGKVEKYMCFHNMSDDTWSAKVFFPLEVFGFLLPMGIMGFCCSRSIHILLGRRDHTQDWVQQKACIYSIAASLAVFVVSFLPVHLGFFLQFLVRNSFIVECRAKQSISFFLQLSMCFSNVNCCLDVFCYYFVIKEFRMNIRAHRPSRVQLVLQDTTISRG

Brc1cc(Br)c2nc(-c3cccs3)ccc2c1
IC50 (Protein skinhead-1): > 100 µM (inactive)
EC50 [1]: 47.9 µM (not active)
EC50 [2]: 30 µM (not active)
EC50 [3]: 34.7 µM (inactive)

O=C(Nc1ccc(S(=O)(=O)Nc2ccccc2)cc1)C1COc2ccccc2O1 (configuration not stated)
EC50 [4]: 3.37 µM (active)
AC50 (CAAX prenyl protease 2 [5]): 4.26 µM (active)
AC50 (CAAX prenyl protease 2 [6]): 65.5 µM (active)
AC50 [7]: 120 µM (active)

O=C(NNC(=O)C1CCN(S(=O)(=O)c2ccccc2)CC1)c1ccccc1O
IC50 (Albumin): > 94.1 µM (inactive)
AC50 [8]: 6.67 µM (active)

Cc1oc(-c2cccs2)nc1CSCC(=O)N1CCC2(CC1)OCCO2
AC50 [7]: 256 µM (active)

Cc1cc2n(n1)SC(Nc1ccc(F)c(Cl)c1)N2 (configuration not stated)
IC50 [9]: > 50 µM (not active)
IC50 [10]: > 50 µM (inactive)
IC50 (Phosphomannomutase 2): > 100 µM (inactive)

CSCC[C@H](NC(=O)c1ccc(Cl)c(S(=O)(=O)N2CCCC2)c1)c1nc2ccccc2[nH]1
IC50 [11]: 5.06 µM (active)
IC50 [12]: 4.93 µM (active)

COc1cc(C2c3sc(=O)[nH]c3SC3C4CCC(C4)C23)ccc1O (configuration not stated)
IC50 [13]: 672 nM (active)
